Legend:
[1] = biological target: Myosin light chain kinase, smooth muscle (Homo sapiens, UniProt Q15746); assay: Selectivity interaction (KinomeScan (DiscoverX)) EUB0000595a MYLK; conditions: at 10 µM
[2] = biological target: Receptor tyrosine-protein kinase erbB-2 (Homo sapiens, UniProt P04626); assay: Selectivity interaction (KinomeScan (DiscoverX)) EUB0001049a ERBB2; conditions: at 1 µM
[3] = biological target: Serine/threonine-protein kinase MARK1 (Homo sapiens) (UniProt Q9P0L2); assay: Selectivity interaction (Kinase screening (Nanosyn)) EUB0000604a MARK1
[4] = biological target: Histamine H3 receptor (Homo sapiens, UniProt Q9Y5N1); assay: Selectivity interaction (GPCR panel (PDSP screen)) EUB0001079a HRH3; conditions: at 10 µM
[5] = biological target: T1, Tyrosine-protein kinase ZAP-70 (Homo sapiens) (UniProt P43403); assay: Selectivity interaction (KinomeScan (DiscoverX)) EUB0000229b ZAP70; conditions: at 10 µM
T1 sequence (whole entry): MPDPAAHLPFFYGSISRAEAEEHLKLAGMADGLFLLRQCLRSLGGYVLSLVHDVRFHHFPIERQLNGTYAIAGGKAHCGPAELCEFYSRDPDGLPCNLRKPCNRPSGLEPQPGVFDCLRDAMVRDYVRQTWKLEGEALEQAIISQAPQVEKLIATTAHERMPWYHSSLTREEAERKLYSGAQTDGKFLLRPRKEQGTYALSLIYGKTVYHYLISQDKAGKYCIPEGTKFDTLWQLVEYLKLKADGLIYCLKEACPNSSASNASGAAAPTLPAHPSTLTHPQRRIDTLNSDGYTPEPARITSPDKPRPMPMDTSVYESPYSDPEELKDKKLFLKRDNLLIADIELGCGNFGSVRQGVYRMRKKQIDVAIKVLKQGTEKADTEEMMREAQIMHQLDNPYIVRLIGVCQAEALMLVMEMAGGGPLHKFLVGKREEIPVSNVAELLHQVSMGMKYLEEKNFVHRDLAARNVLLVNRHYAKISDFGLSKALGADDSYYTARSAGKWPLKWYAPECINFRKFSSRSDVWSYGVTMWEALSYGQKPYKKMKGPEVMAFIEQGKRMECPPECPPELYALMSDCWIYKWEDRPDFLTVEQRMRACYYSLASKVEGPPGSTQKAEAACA

[6] = biological target: T2, Mitogen-activated protein kinase 15 (Homo sapiens) (UniProt Q8TD08); assay: Selectivity interaction (KinomeScan (DiscoverX)) EUB0000092b MAPK15; conditions: at 10 µM
T2 sequence (whole entry): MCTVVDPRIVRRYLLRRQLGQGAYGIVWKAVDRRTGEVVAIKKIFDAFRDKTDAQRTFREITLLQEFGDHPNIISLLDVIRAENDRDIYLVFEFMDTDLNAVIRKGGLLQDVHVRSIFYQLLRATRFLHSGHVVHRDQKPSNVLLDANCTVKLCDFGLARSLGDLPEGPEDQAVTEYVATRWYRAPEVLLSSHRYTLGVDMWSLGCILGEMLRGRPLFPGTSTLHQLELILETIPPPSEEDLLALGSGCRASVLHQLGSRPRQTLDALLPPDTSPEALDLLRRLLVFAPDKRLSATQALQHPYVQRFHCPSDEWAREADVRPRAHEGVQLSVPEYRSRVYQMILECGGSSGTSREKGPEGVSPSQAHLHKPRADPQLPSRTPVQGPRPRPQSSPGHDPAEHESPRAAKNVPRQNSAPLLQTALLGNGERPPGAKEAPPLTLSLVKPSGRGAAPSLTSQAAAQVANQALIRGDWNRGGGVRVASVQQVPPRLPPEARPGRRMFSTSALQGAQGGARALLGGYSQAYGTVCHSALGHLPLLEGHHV

[7] = biological target: Casein kinase II subunit alpha (Homo sapiens, UniProt P68400); assay: Selectivity interaction (KinomeScan (DiscoverX)) EUB0000618a CSNK2A1; conditions: at 10 µM
[8] = biological target: T3, Muscle, skeletal receptor tyrosine-protein kinase (Homo sapiens) (UniProt O15146); assay: Selectivity interaction (KinomeScan (DiscoverX)) EUB0001619a MUSK; conditions: at 1 µM
T3 sequence (whole entry): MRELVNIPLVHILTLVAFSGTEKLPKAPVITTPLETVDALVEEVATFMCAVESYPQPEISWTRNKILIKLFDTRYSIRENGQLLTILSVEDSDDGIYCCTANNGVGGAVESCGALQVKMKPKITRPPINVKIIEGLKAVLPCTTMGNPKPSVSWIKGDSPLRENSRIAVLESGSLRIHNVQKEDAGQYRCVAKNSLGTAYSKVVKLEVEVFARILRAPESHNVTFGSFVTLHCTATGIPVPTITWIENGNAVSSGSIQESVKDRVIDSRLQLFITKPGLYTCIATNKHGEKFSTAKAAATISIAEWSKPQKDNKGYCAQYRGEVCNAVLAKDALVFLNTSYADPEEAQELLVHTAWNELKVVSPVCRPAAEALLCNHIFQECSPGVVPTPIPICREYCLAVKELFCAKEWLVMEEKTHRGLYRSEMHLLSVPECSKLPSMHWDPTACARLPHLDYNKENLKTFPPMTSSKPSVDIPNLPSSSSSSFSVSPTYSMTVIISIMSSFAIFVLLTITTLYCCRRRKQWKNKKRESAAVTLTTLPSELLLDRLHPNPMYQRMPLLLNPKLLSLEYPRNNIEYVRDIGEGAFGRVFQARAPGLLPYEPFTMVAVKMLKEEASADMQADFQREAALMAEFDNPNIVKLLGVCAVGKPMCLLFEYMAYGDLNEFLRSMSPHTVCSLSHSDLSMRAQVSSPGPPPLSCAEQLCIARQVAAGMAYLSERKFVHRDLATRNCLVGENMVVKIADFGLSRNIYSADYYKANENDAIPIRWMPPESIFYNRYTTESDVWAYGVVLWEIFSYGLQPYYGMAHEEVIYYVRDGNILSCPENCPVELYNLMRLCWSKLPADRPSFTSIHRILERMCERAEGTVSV

Sequence of Serine/threonine-protein kinase MARK1 (Homo sapiens) (Q9P0L2 whole entry, looked up): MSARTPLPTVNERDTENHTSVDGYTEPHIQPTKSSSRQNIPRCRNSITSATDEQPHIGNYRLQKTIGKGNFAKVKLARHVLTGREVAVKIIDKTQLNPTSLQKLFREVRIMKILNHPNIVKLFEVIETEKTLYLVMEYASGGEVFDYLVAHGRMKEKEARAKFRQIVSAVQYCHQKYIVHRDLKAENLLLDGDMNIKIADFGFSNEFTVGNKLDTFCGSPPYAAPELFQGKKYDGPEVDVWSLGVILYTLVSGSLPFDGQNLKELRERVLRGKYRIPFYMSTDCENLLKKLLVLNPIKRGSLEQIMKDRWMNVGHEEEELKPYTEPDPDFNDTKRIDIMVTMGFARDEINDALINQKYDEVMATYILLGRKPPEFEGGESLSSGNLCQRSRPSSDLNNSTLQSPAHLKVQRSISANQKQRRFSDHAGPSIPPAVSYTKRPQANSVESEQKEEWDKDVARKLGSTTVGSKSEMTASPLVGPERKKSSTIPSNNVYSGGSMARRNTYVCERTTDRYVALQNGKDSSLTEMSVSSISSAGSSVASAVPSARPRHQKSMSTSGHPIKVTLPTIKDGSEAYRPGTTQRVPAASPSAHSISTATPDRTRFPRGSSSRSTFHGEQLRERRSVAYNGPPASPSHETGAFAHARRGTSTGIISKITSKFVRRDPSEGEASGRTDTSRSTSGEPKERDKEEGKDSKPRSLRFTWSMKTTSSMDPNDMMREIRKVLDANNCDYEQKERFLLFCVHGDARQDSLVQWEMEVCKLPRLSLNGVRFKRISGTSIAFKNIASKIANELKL
Sequence of Casein kinase II subunit alpha (P68400 whole entry, looked up): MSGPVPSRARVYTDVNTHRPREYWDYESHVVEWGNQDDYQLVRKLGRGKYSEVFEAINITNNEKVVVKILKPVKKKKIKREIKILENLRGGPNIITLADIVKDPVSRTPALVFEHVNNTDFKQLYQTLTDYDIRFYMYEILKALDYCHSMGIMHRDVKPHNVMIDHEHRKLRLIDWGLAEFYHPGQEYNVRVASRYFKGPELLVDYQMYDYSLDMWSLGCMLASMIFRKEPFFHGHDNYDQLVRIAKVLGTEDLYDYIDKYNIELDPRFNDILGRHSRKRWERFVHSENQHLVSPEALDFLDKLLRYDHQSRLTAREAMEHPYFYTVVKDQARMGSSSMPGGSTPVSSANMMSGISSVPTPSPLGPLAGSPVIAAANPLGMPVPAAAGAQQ
Sequence of Myosin light chain kinase, smooth muscle (Q15746 whole entry): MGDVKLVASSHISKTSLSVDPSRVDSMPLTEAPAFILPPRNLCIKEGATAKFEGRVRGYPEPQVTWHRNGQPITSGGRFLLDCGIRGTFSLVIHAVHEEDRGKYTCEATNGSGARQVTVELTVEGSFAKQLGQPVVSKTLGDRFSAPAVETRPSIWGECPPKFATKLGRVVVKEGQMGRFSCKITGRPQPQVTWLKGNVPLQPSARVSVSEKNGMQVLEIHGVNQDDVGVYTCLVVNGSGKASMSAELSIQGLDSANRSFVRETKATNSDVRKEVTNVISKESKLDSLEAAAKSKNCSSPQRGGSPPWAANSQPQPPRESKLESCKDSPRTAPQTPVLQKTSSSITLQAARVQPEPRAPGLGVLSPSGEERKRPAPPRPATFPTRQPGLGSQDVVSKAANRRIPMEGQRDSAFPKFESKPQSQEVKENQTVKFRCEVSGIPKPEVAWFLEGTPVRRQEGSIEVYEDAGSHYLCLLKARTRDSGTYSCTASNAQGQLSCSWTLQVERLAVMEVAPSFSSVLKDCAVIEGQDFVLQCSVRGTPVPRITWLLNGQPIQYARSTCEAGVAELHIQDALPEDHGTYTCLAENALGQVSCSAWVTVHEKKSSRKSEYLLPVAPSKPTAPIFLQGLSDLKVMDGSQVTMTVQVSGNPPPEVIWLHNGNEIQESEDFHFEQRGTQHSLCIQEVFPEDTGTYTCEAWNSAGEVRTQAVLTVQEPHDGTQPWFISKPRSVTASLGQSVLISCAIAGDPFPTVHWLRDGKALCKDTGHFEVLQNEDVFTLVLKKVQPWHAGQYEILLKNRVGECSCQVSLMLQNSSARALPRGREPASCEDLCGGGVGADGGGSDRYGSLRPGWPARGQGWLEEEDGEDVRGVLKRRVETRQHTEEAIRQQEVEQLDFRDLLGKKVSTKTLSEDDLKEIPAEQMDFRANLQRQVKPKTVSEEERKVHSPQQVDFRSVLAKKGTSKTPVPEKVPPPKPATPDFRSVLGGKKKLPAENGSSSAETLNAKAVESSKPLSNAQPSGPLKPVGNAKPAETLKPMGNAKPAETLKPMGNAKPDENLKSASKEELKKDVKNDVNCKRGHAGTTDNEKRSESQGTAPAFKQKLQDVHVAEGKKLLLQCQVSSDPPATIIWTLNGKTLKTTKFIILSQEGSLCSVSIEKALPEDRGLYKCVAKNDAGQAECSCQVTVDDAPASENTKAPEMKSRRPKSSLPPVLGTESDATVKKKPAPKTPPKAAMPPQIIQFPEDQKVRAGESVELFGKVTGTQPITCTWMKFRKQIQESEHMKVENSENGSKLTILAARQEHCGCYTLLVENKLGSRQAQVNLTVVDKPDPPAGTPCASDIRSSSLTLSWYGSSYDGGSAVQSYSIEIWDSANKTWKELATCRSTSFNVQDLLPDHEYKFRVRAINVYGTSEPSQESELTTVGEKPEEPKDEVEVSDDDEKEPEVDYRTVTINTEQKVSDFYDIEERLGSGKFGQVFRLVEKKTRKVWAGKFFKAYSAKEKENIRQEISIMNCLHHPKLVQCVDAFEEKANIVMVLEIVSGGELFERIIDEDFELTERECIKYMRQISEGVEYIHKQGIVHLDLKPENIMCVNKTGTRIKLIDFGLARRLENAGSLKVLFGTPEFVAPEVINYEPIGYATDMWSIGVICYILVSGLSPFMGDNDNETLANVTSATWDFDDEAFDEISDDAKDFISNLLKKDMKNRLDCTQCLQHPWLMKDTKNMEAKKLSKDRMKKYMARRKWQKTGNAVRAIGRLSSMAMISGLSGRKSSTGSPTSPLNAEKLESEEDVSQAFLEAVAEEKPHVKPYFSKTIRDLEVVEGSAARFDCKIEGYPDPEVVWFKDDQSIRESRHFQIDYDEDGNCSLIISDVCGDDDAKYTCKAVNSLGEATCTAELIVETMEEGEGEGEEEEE
Sequence of Receptor tyrosine-protein kinase erbB-2 (P04626 whole entry): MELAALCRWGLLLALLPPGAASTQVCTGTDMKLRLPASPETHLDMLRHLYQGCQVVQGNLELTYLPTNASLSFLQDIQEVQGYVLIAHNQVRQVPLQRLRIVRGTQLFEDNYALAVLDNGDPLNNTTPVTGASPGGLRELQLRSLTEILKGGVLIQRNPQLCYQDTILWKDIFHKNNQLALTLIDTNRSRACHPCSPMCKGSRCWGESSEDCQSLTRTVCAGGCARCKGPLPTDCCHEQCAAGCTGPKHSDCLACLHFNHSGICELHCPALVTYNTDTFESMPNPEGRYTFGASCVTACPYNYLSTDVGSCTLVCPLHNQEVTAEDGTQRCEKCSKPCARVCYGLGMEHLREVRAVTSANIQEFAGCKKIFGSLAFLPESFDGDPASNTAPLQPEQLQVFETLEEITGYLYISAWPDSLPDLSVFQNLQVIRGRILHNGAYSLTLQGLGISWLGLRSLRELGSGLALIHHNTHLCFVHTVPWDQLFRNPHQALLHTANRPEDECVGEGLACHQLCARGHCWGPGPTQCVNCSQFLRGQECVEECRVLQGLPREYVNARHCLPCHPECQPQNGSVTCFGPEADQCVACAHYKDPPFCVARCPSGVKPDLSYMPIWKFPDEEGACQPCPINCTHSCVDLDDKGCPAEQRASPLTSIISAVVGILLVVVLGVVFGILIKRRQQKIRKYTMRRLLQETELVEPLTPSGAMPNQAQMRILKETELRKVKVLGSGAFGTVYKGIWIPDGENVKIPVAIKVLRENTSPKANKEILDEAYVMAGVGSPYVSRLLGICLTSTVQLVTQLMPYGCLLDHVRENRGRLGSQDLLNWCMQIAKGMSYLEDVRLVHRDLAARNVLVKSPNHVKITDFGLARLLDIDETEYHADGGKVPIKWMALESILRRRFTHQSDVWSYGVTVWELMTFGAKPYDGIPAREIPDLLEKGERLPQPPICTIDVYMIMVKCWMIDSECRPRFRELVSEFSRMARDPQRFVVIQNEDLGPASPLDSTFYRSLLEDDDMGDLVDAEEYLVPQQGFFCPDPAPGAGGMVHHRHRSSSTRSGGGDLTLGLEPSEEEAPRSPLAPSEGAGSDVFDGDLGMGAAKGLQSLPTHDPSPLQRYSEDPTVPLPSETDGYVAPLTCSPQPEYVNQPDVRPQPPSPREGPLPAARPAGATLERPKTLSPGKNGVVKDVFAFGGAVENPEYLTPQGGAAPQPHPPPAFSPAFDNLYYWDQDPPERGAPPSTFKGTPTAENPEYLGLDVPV
Sequence of Histamine H3 receptor (Q9Y5N1 whole entry): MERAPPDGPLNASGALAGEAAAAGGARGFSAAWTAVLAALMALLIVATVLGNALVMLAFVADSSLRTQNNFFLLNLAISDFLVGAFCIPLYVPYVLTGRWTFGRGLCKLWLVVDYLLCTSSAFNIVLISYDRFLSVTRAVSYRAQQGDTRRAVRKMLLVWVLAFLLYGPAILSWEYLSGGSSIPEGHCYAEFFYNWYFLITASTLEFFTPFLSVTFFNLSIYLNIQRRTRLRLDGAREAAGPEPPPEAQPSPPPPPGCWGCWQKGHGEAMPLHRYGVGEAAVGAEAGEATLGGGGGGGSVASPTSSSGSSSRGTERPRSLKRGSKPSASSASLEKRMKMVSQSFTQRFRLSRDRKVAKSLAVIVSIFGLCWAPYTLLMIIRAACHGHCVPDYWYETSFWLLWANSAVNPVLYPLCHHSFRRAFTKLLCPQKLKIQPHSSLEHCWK

COCC(=O)NC/C=C/c1ccc2ncnc(Nc3ccc(Oc4ccc(C)nc4)c(C)c3)c2c1 [CP-724714]
% of control [1]: 87%

COc1cc(Nc2nc(C)cc(-c3cnn4nc(OC)ccc34)n2)cc(C(F)(F)F)c1
% of control [2]: 100%

Cc1cnc(Nc2ccc(F)cc2Cl)nc1-c1c[nH]c(C(=O)N[C@H](CO)c2cccc(Cl)c2)c1
% of inhibition [3]: 12%

Nc1cnc(N2CCc3cc(S(=O)(=O)Nc4c(F)cc(Cl)cc4F)cc(N4CCCC4=O)c32)nc1 [TP-020n]
% of inhibition [4]: -1.21%

COc1cc(N(C)c2ccnc3ccc(C(F)(F)F)cc23)cc(OC)c1OC
% binding [5]: 100%

CCC(=O)N1CCN(c2ccc(-n3c(=O)ccc4cnc5ccc(-c6cnc7ccccc7c6)cc5c43)cc2C(F)(F)F)CC1
% of control [6]: 79%

O[C@H]1CC[C@H](Nc2ncc3nc(Nc4c(F)cc(F)cc4F)n([C@H]4CCOC4)c3n2)CC1
% of control [7]: 100%

N#Cc1cccc(-c2c[nH]c3ncnc(N4CCOCC4)c23)c1
% of control [8]: 95%

— ChEMBL document CHEMBL5465560, “Selectivity Literature for EUbOPEN Chemogenomic Library” (2024)
